Earlier results as cited in US20250074935A1, “HETERODIMER COMPOSITIONS AND METHODS FOR THE TREATMENT OF OCULAR DISORDERS” (Ripple Therapeutics Corporation, priority 2020, published 2025).

Settings: given once a day

CC(C)OC(=O)CCC/C=C\C[C@@H]1[C@@H](CC[C@@H](O)CCc2ccccc2)[C@H](O)C[C@@H]1O [latanoprost]
mean IOP lowering: about 35%
